Source: ChEMBL document CHEMBL1147452, “A new approach to the synthesis of optically active alkylated adenine derivatives” (Bioorg Med Chem Lett, 2004)

What was measured:
Vaccinia virus = experiment: Inhibitory concentration required against vaccinia virus in Vero cell culture; assay type: functional, organism-based; conditions: Orthopoxvirus vaccinia
[1] = Cytotoxic concentration at which cell viability was reduced by 50%; assay type: functional
Cowpox virus = experiment: Inhibitory concentration required against Cowpox virus in Vero cell culture; assay type: functional, organism-based
Monkeypox virus = experiment: Inhibitory concentration required against Monkeypox virus in Vero cell culture; assay type: functional, organism-based
Variola virus = experiment: Inhibitory concentration required against replication of small pox virus (strain India 3a) in Vero cells; assay type: functional, organism-based

| SMILES | IC50 (Vaccinia virus) [µM] | CC50 [1] [µM] | IC50 (Cowpox virus) [µM] | IC50 (Monkeypox virus) [µM] | IC50 (Variola virus) [µM] |
| --- | --- | --- | --- | --- | --- |
| Nc1ncnc2c1ncn2C[C@H](O)CO [(S)-DHPA] | 34 | > 500 | 49 | 54 | 41 |
| Nc1ncnc2c1ncn2C[C@H]1COP(=O)(O)CO1 | 41 | > 350 | 61 | 48 | – |
| COC(CO)O[C@@H](CO)Cn1cnc2c(N)ncnc21 (some centres undefined) | – | – | – | – | 62 |
| Nc1ncnc2c1ncn2C[C@@H]1COP(=O)(O)CO1 | > 350 | > 350 | > 350 | > 350 | – |
| Nc1ncnc2c1ncn2C[C@@H](O)CO | > 500 | > 500 | > 500 | > 500 | – |
| Nc1ncnc2c1ncn2C[C@H](O)C(=O)O | – | – | – | – | 91 |
